Structures can show the parent of a compound that is named as a salt.
Key:
[1] = system: Mice sensitized with short ragweed allergen; assay: Murine model of allergic conjunctivitis (conjunctival allergen challenge, short ragweed); type: in vivo, mouse
Protocol: Mice were sensitized with subcutaneously injected short ragweed allergen (day 1, day 11), and underwent conjunctival allergen challenge (CAC) on day 18 with short ragweed allergen. Following challenge, the mice were randomized into treatment groups (n=8) and given topical test compounds: vehicle, 0.1% Compound 1, 1% Compound 1, 1% prednisolone, or saline (BSS) twice a day for 2 days, and three times a day for an additional 4 days during allergen challenges. Challenges were conducted twice daily, on day 21 thru 24. Responses to allergen challenge were evaluated after challenges 1, 4, 6 and 8.

[2] = Dissolution study of HCl salt and free base in formulation buffer; type: physicochemical; conditions: for solubility (visual appearance): 10 mg/mL (1%) in pH 6, 10 mM citrate buffer, 1% PEG400, 1% Glycerin, 0.3% NaCl, 0.05% PS80
Protocol: A dissolution study was performed in which the HCl salt or the free base were added to the following formulation buffer at a concentration of 10 mg/mL (1%): • pH 6, 10 mM citrate buffer, 1% PEG400, 1% Glycerin, 0.3% NaCl, 0.05% PS80.
The pH was increased for soluble samples to better understand their properties. The appearance of the samples was visually observed for clarity or cloudiness. […] The free base was not soluble.

[3] = system: patients with acute or chronic allergic conjunctivitis; assay: Clinical conjunctival allergen challenge (CAC) study; type: in vivo, human
Description: In a study utilizing the clinical model of the conjunctival allergen challenge (CAC) qualifying patients with acute or chronic allergic conjunctivitis were randomized to receive one of the five interventions listed below, each was given six doses at 1 drop per dose. The CAC model is a standardized clinical methodology for evaluation of novel drugs for allergy and anti-inflammatory activity, accepted by the FDA for clinical development of novel therapeutics, and has been used for development of 19 drugs currently on the market. In the CAC model, doses of allergen are administered in a controlled fashion to patients eyes in the office setting to induce a controlled allergic reaction. Drug is administered at pre-specified timepoints and signs and symptoms are collected also at pre-specified timepoints to assess efficacy.
• Composition A: 0.5% w/w Compound 1 HCl salt, 1.5% w/w glycerin, 0.01% w/w BAC in 10 mM phosphate buffer, pH 6.0. • Composition B: 1.0% w/w Compound 1 HCl salt, 1.5% w/w glycerin, 0.01% w/w BAC in 10 mM phosphate buffer, pH 6.0. • Placebo: 0.01% w/w BAC, 1.5% w/w glycerol, pH 6.0. After receiving screening and baseline CACs, patients were assigned in a masked randomization fashion to receive a study treatment at 8 hour or 15 min pre-CAC at Visits 4b and 5, respectively. […]
• Ocular Itching [Time Frame: 5, 7, and 10 minutes post allergen administration (CAC)] Ocular Itching were assessed by the subjects using a 0-4 scale (0=none to 4=severe). Average of ocular itching score over both eyes were analyzed. • Conjunctival Redness [Time Frame: 7, 15, and 20 minutes post allergen administration CAC] • Conjunctival Redness were assessed by the investigator using a 0-4 scale (0=none to 4=severe). Average of conjunctival redness score over both eyes were analyzed. • Other variables assessed for efficacy include lid swelling, chemosis, tearing, nasal symptoms, and indication of biological activity via exploratory assessment of biomarkers, and exploratory imaging of inflammation with in vivo confocal microscopy. […]

[4] = Free base solubilization with solubilizers; type: physicochemical; conditions: aqueous solubilizer (excipient) mixture, aqueous with cosolvent or surfactant or cyclodextrin; combination of 3% Glycerin, 5% PEG 400, 5% PEG-35 castor oil, 15% polysorbate 60, 4% polysorbate 80, 2% PVP K29/32, 10% propylene glycol
Description: The free base was not soluble with various solubilizers.

**Q.** For `C[C@]12C=CC(=O)C=C1CC[C@@H]1[C@@H]2[C@@H](O)C[C@@]2(C)[C@H]1CC[C@]2(O)C(=O)CO` [prednisolone, reference compound], which “test days with significant decrease in the mean change in hyperemia” value ([1]; prednisolone (1.0%), topical, positive control) is on record?
**A.** The value was 2 of 4.

**Q.** For `NC(=O)c1cnc(N[C@@H]2CCCC[C@@H]2N)nc1Nc1cccc(-c2ncccn2)c1` [HCl salt, 2-((1R,2S)-2-aminocyclohexylamino)-4-(3-(pyrimidin-2-yl)phenylamino)pyrimidine-5-carboxamide], which “solubility (visual appearance)” value [2] is on record?
**A.** Its value is “soluble even at a pH of 6”.

**Q.** And the “behaviour as pH was increased from 6” value ([2]; same formulation buffer, pH increased)?
**A.** Its value is “precipitates formed”.

**Q.** Which results are given for `NC(=O)c1cnc(N[C@@H]2CCCC[C@@H]2N)nc1Nc1cccc(-c2ncccn2)c1` [Compound 1, 2-((1R,2S)-2-aminocyclohexylamino)-4-(3-(pyrimidin-2-yl)phenylamino)pyrimidine-5-carboxamide]?
**A.** treatment emergent adverse events ([3]; Compound 1 groups): rated mild; biological effect ([3]; both concentrations (0.5%, 1%)): clear and consistent biological effect; reduction of redness, 8 hours versus 15 minutes following dosing ([3]; human, in vivo): reduced redness to a greater extent at 8 hours following dosing compared with 15 minutes; solubility (visual appearance) ([2]; listed as free base): not soluble; test days with statistically significant reduction in overall mean hyperemia ([1]; 1% Compound 1): 3 of 4; test days with significantly reduced mean change in hyperemia compared to saline ([1]; Compound 1 (0.1%), topical): 2 of 4; test days with significantly reduced mean change in hyperemia (pre-versus post-CAC) compared to saline ([1]; Compound 1 (1%), topical): 4 of 4; ocular discharge, lid swelling, or squinting ([1]; mouse, in vivo): No significant changes; relief of allergic conjunctivitis ([1]; murine model): showed efficacy; solubility [4]: 1000 to 10000 µg/mL
